Reference: paper PMC11279931, “Development and Evaluation of Docetaxel-Loaded Nanostructured Lipid Carriers for Skin Cancer Therapy” (Pharmaceutics, 2024)
Values after ≈ are worked out from the molar mass of the structure shown.

Assays:
[1] = Docetaxel equilibrium solubility in molten solid lipids; assay type: physicochemical; settings: melted state at 75 °C, 24 h
Experimental: To assess the solubility of the active substance, various solid lipids were examined (such as tetradecanoic acid, decanoic acid, palmitic acid, stearic acid, GMS-SE, GMS, sorbitan monostearate, cetyl palmitate, Gelucire® 43/01, and Suppocire® NAS 50). Initially, 500 mg of each solid lipid was accurately weighed and melted. Subsequently, excess docetaxel was added to the molten lipid. The drug–lipid mixture was kept at a constant temperature of 75 °C, thus maintaining a minimum of 10 °C above the melting point of the solid lipids. The mixture was stirred at 750 rpm for 24 h. Using preheated utensils, a predetermined amount of supernatant was carefully transferred into a 5 mL volumetric flask. The transfer was done by weight to ensure precision and consistency in sample size across all tests. The transferred sample was dissolved using a suitable solvent selected based on its compatibility with both the lipid and docetaxel. Choices like methanol, dichloromethane, DMSO, or their mixtures were used depending on their efficacy in dissolving the sample thoroughly. […]
For the quantitative analysis of docetaxel, a Jasco LC-4000 Series HPLC system (JASCO Corporation, Tokyo, Japan) containing a quaternary pump (model PU-4180), an autosampler (model AS-4150), a DAD detector (model MD-4010), and a column thermostat (model CO-4061) was employed. […]

[2] = test system: SK-MEL-24 tumor cells; assay: Apoptosis, Annexin V-FITC/PI flow cytometry; assay type: cell-based, human; settings: 5 and 50 μg/mL
Experimental: (§1) SK-MEL-24 (human melanoma cell line—HTB-71) and HUVEC (human primary umbilical vein endothelial cells—CRL-1730) were purchased from the American Type Culture Collection (ATCC). HUVEC normal cells were used as a reference. Adherent cells were maintained in culture in DMEM/F12 medium added by 2 mM L-glutamine, 10% fetal bovine serum, 100 units/mL penicillin, 100 μg/mL streptomycin, and incubated at 37 °C in 5% CO2 humidified atmosphere. After 24 h, adherent cells were treated with different concentrations of the compounds for different timeframes. A 5-FU conventional oncology drug used in cancer treatments can be used as a positive control of the experiments. Cell treatments of compounds were carried out using concentrations of 200, 100, 50, 25, 12.5, 6.25, 3.125, and 1.56 μg/mL of the drug. Then, cells were detached with a nonenzymatic PBS/1 mM EDTA solution washed twice in PBS.
(§2) The apoptosis assay was performed according to the manufacturer’s instructions using the Annexin V-FITC kit from BD Biosciences. Cells treated and untreated with the experimental compound were resuspended in a cold binding buffer. The percentages of apoptotic cells were determined by double staining with Annexin V-FITC/PI. In each tube was added 400 μL of Annexin V binding buffer and the 5000 cells/sample for 15 min in the dark at room temperature. The cells were analyzed using a FACS CantoII flow-cytometer (Becton Dickinson—BD). The analysis was performed using DIVA 6.2 software to discriminate viable cells (FITC-PI-) from necrotic cells (FITC+PI+) and early apoptosis (FITC+PI-) from late apoptosis.

[3] = test system: HUVEC normal cells; assay: Apoptosis, Annexin V-FITC/PI flow cytometry; assay type: cell-based, human; settings: 50 μg/mL, 24 h; untreated approximately 7–8%
Experimental: as §1, §2

[4] = design: method as in PMID 32164731, PMID 25974386; settings: cited from earlier work
[5] = test system: SK-MEL-24 tumor cells; assay: Cell cycle analysis by flow cytometry; assay type: cell-based, human
Experimental: as §1
(§3) In this experiment, 5 × 10^5 cells that had been previously fixed were washed and resuspended in PBS. The CycleTEST PLUS DNA Reagent kit from BD Biosciences was used according to the manufacturer’s protocol for the assay. The probes were kept in the dark and at 4 °C until data acquisition by flow cytometry (Becton Dickinson—BD) using a FACSCantoII flow cytometer from BD. The ModFIT v3.2 software was used to analyze the data and estimate the DNA index (DI) and progression through cell cycle phases.

[6] = test system: HUVEC normal cells; assay: Cell cycle analysis by flow cytometry; assay type: cell-based, human
Experimental: as §1, §3

[7] = design: method as in PMID 32164731, PMID 33531521, PMID 31310876, PMID 25974386; settings: cited from earlier work
[8] = Thermogravimetric analysis; assay type: physicochemical; settings: TGA, 10 °C/min, nitrogen
Experimental: Thermogravimetric analysis (TGA) was performed for NLC-DTX, NLC-Blank, and their components (DTX, GC, G43/01, MCT, S-PC-3, T80, mannitol) using thermal analyzer TGA Q5000IR (TA Instruments, New Castle, DE, USA). TGA curves were generated with a heating rate of 10 °C/min over a temperature range from room temperature to 700 °C, under a dynamic nitrogen atmosphere (50 mL/min). The samples were placed in a platinum pan (100 µL).

[9] = test system: HUVEC normal cells; assay: MTS cytotoxicity assay; assay type: cell-based, human
Experimental: as §1, with “Cell treatments of compounds were carried out using concentrations of 200, 100, 50, 25, 12.5, 6.25, 3.125, and 1.56 μg/mL of the drug. Then, cells were detached with a nonenzymatic PBS/1 mM EDTA solution washed twice in PBS.” left out
All assays were performed in triplicate in 96-well microtiter plates with flat bottom (Falcon), using CellTiter 96 Aqueous One Solution Cell Proliferation Assay (Promega, Madison, WI, USA), an MTS-based colorimetric assay. […] The reduction of the tetrazolium compound to formazan was spectrophotometrically measured at λ = 492 nm using a Dynex plate reader (DYNEX Technologies MRS, Chantilly, VA, USA). The percentage of viability compared to untreated cells (considered 100% viable) was calculated with the formula:(2) Cell viability=absorbance of treated cells−absorbance of culture medium/absorbance of untreated cells−absorbance of culture medium×100 […]

SMILES: CC(=O)O[C@@]12CO[C@@H]1C[C@H](O)[C@@]1(C)C(=O)[C@H](O)C3=C(C)[C@@H](OC(=O)[C@H](O)[C@@H](NC(=O)OC(C)(C)C)c4ccccc4)C[C@@](O)([C@@H](OC(=O)c4ccccc4)[C@H]21)C3(C)C [DTX, Docetaxel]
- docetaxel solubility in Gelucire 43/01 [1]: 10 mg/g
- docetaxel solubility in tetradecanoic acid [1]: 16 mg/g
- effect on apoptosis ([2]; 24 and 48 h, untreated approximately 4–5%): sustained increases in apoptosis
- increase in apoptosis ([2]; after 48 h, vs untreated): two-fold
- apoptosis [3]: 12.3%
- logp value [4]: 4.1
- cell cycle distribution ([5]; 5 μg/mL, 24 h and 48 h): decreases the G1 phase and increases the G2 phase
- cell cycle distribution ([5]; 50 μg/mL, 24 h): a decrease in the S phase accompanied by an increase in the G2 phase
- cell cycle distribution ([5]; 50 μg/mL, 48 h): a significant decrease in the S phase
- cell cycle alterations ([6]; 50 μg/mL, 24 h): G2/M arrest
- cell cycle alterations ([6]; 50 μg/mL, 48 h): a decrease in the G1 population, and an increase in the S phase
- cell cycle alterations ([6]; 24 h, concentration not given): a decrease in the S phase accompanied by an increase in the G2 phase
- cell cycle alterations ([6]; 48 h, independent of the concentration): an increase in the S phase and a significant decrease in the G1 phase
- water solubility [7]: 4.93 µg/mL (≈ 6.1 µM)
- thermal stability limit [8]: approximately 120 °C
- IC50 ([9]; Homo sapiens, HUVEC, tested range 1.56–200 μg/mL, read-out: IC50 on HUVECs): < 1.56 µg/mL
- cell death (reduction in HUVEC viability) ([9]; all tested concentrations (1.56–200 μg/mL), after 24 and 48 h): over 50%
